Experimental findings from BindingDB's records for PubMed 11714898 (Creighton University, 2001) are described below.

Test [1] concerns the target T1, Receptor activity-modifying protein 1 (Sus scrofa, UniProt Q867C0).
T1 sequence (Q867C0 whole entry): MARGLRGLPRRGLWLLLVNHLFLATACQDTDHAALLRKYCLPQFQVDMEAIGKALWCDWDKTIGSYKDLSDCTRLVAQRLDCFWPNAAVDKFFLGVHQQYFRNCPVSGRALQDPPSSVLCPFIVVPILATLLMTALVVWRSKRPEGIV

The target in test [2] is Calcitonin gene-related peptide type 1 receptor (Sus scrofa, UniProt Q8WN93).

Residues, ends and D or L forms follow the SMILES beside them.

Chain of Calcitonin gene-related peptide type 1 receptor (Q8WN93 whole entry): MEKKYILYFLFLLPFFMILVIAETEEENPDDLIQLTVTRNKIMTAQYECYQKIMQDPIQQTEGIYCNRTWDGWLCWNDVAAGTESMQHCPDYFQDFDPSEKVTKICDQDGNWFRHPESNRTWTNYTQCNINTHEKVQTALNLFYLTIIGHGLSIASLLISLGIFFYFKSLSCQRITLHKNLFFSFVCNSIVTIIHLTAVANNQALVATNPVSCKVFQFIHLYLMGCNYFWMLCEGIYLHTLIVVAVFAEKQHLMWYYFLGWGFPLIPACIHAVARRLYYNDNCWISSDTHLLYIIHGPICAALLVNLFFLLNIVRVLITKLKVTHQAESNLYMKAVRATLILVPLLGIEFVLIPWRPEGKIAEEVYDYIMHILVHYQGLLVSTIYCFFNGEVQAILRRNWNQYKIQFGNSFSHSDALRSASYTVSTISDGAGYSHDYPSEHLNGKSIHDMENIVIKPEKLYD

In general, Ki refers to the dissociation constant of the complex between target and ligand, obtained from inhibition or displacement. Compound `CC(=O)N[C@H](C(=O)N[C@H](C(=O)N[C@@H](Cc1cnc[nH]1)C(=O)N[C@@H](CCCN=C(N)N)C(=O)N[C@@H](CC(C)C)C(=O)N[C@@H](C)C(=O)NCC(=O)N[C@@H](CC(C)C)C(=O)N[C@@H](CC(C)C)C(=O)N[C@@H](CO)C(=O)N[C@@H](CCCN=C(N)N)C(=O)N[C@@H](CO)C(=O)NCC(=O)NCC(=O)N[C@H](C(=O)N[C@H](C(=O)N[C@@H](CCCCN)C(=O)N[C@@H](CC(N)=O)C(=O)N[C@@H](CC(N)=O)C(=O)N[C@@H](Cc1ccccc1)C(=O)N[C@H](C(=O)N1CCC[C@H]1C(=O)N[C@H](C(=O)N[C@@H](CC(N)=O)C(=O)N[C@H](C(=O)NCC(=O)N[C@@H](CO)C(=O)N[C@@H](CCCCN)C(=O)N[C@@H](C)C(=O)N[C@@H](Cc1ccccc1)C(N)=O)C(C)C)[C@@H](C)O)C(C)C)C(C)C)C(C)C)[C@@H](C)O)C(C)C` [[N-acetyl]h alpha-CGRP8-37] registered a Ki in test [1] of 1.3 nM. Regarding `CC(C)C[C@H](NC(=O)CNC(=O)[C@H](C)NC(=O)[C@H](CC(C)C)NC(=O)[C@H](CCCN=C(N)N)NC(=O)[C@H](Cc1cnc[nH]1)NC(=O)[C@@H](NC(=O)[C@@H](NCc1ccc(O)cc1)C(C)C)[C@@H](C)O)C(=O)N[C@@H](CC(C)C)C(=O)N[C@@H](CO)C(=O)N[C@@H](CCCN=C(N)N)C(=O)N[C@@H](CO)C(=O)NCC(=O)NCC(=O)N[C@H](C(=O)N[C@H](C(=O)N[C@@H](CCCCN)C(=O)N[C@@H](CC(N)=O)C(=O)N[C@@H](CC(N)=O)C(=O)N[C@@H](Cc1ccccc1)C(=O)N[C@H](C(=O)N1CCC[C@H]1C(=O)N[C@H](C(=O)N[C@@H](CC(N)=O)C(=O)N[C@H](C(=O)NCC(=O)N[C@@H](CO)C(=O)N[C@@H](CCCCN)C(=O)N[C@@H](C)C(=O)N[C@@H](Cc1ccccc1)C(N)=O)C(C)C)[C@@H](C)O)C(C)C)C(C)C)C(C)C` [[N-benzol]h alpha-CGRP8-37], the Ki in test [1] is 0.072 nM; in test [2], 0.27 nM.

Regarding `CC(C)C[C@H](NC(=O)CNC(=O)[C@H](C)NC(=O)[C@H](CC(C)C)NC(=O)[C@H](CCCN=C(N)N)NC(=O)[C@H](Cc1cnc[nH]1)NC(=O)[C@@H](NC(=O)[C@@H](N)C(C)C)[C@@H](C)O)C(=O)N[C@@H](CC(C)C)C(=O)N[C@@H](CO)C(=O)N[C@@H](CCCN=C(N)N)C(=O)N[C@@H](CO)C(=O)NCC(=O)NCC(=O)N[C@H](C(=O)N[C@H](C(=O)N[C@@H](CCCCN)C(=O)N[C@@H](CC(N)=O)C(=O)N[C@@H](CC(N)=O)C(=O)N[C@@H](Cc1ccccc1)C(=O)N[C@H](C(=O)N1CCC[C@H]1C(=O)N[C@H](C(=O)N[C@@H](CC(N)=O)C(=O)N[C@H](C(=O)NCC(=O)N[C@@H](CO)C(=O)N[C@@H](CCCCN)C(=O)N[C@@H](C)C(=O)N[C@@H](C)C(N)=O)C(C)C)[C@@H](C)O)C(C)C)C(C)C)C(C)C` [[Ala37]h alpha-CGRP8-37] (H-VTHRLAGLLSRSGGVVKNNFVPTNVGSKAA-NH2), the Ki in test [1] was determined as 1020 nM; in test [2] it was 500 nM. As to `CC(C)C[C@H](NC(=O)CNC(=O)[C@H](C)NC(=O)[C@H](CC(C)C)NC(=O)[C@H](CCCNC(=N)N)NC(=O)[C@H](Cc1cnc[nH]1)NC(=O)[C@@H](NC(=O)[C@@H](NC(=O)[C@@H]1CSSC[C@H](NC(=O)[C@H](C)N)C(=O)N[C@@H](CC(=O)O)C(=O)N[C@@H]([C@@H](C)O)C(=O)N[C@@H](C)C(=O)N[C@@H]([C@@H](C)O)C(=O)N1)C(C)C)[C@@H](C)O)C(=O)N[C@@H](CC(C)C)C(=O)N[C@@H](CO)C(=O)N[C@@H](CCCNC(=N)N)C(=O)N[C@@H](CO)C(=O)NCC(=O)NCC(=O)N[C@H](C(=O)N[C@H](C(=O)N[C@@H](CCCCN)C(=O)N[C@@H](CC(N)=O)C(=O)N[C@@H](CC(N)=O)C(=O)N[C@@H](Cc1ccccc1)C(=O)N[C@H](C(=O)N1CCC[C@H]1C(=O)N[C@H](C(=O)N[C@@H](CC(N)=O)C(=O)N[C@H](C(=O)NCC(=O)N[C@@H](CO)C(=O)N[C@@H](CCCCN)C(=O)N[C@@H](C)C(=O)N[C@@H](Cc1ccccc1)C(N)=O)C(C)C)[C@@H](C)O)C(C)C)C(C)C)C(C)C` [h alpha-CGRP], the affinity in test [1], expressed as Ki, was 0.08 nM. `CC(C)C[C@H](NC(=O)[C@H](CCCNC(=N)N)NC(=O)[C@H](Cc1cnc[nH]1)NC(=O)[C@@H](NC(=O)[C@@H](NC(=O)[C@@H]1CSSC[C@H](NC(=O)[C@H](C)N)C(=O)N[C@@H](CC(=O)O)C(=O)N[C@@H]([C@@H](C)O)C(=O)N[C@@H](C)C(=O)N[C@@H]([C@@H](C)O)C(=O)N1)C(C)C)[C@@H](C)O)C(=O)N[C@@H](C)C(=O)N1CCC[C@H]1C(=O)N[C@@H](CC(C)C)C(=O)N[C@@H](CC(C)C)C(=O)N[C@@H](CO)C(=O)N[C@@H](CCCNC(=N)N)C(=O)N[C@@H](CO)C(=O)NCC(=O)NCC(=O)N[C@H](C(=O)N[C@H](C(=O)N[C@@H](CCCCN)C(=O)N[C@@H](CC(N)=O)C(=O)N[C@@H](CC(N)=O)C(=O)N[C@@H](Cc1ccccc1)C(=O)N[C@H](C(=O)N1CCC[C@H]1C(=O)N[C@H](C(=O)N[C@@H](CC(N)=O)C(=O)N[C@H](C(=O)NCC(=O)N[C@@H](CO)C(=O)N[C@@H](CCCCN)C(=O)N[C@@H](C)C(=O)N[C@@H](Cc1ccccc1)C(N)=O)C(C)C)[C@@H](C)O)C(C)C)C(C)C)C(C)C` [[Pro14]h alpha-CGRP] (HELM PEPTIDE1{A.C.D.T.A.T.C.V.T.H.R.L.A.P.L.L.S.R.S.G.G.V.V.K.N.N.F.V.P.T.N.V.G.S.K.A.F.[am]}$PEPTIDE1,PEPTIDE1,2:R3-7:R3$$$V2.0): the values for the Ki in test [1] and in test [2] were 5.5 nM and 9 nM, respectively.

`CC(C)C[C@H](NC(=O)CNC(=O)[C@H](C)NC(=O)[C@H](CC(C)C)NC(=O)[C@H](CCCNC(=N)N)NC(=O)[C@H](Cc1cnc[nH]1)NC(=O)[C@@H](NC(=O)[C@@H](N)C(C)C)[C@@H](C)O)C(=O)N[C@@H](CC(C)C)C(=O)N[C@@H](CO)C(=O)N[C@@H](CCCNC(=N)N)C(=O)N[C@@H](CO)C(=O)NCC(=O)NCC(=O)N[C@H](C(=O)N[C@H](C(=O)N[C@@H](CCCCN)C(=O)N[C@@H](CC(N)=O)C(=O)N[C@@H](CC(N)=O)C(=O)N[C@@H](Cc1ccccc1)C(=O)N[C@H](C(=O)N1CCC[C@H]1C(=O)N[C@H](C(=O)N[C@@H](CC(N)=O)C(=O)N[C@H](C(=O)NCC(=O)N[C@@H](CO)C(=O)N[C@@H](CCCCN)C(=O)N[C@@H](C)C(=O)N[C@@H](Cc1ccccc1)C(N)=O)C(C)C)[C@@H](C)O)C(C)C)C(C)C)C(C)C`: in test [1], the affinity, expressed as Ki, was 5.7 nM.

Regarding `CC(C)[C@H](NC(=O)[C@H](CC(N)=O)NC(=O)[C@@H](NC(=O)[C@@H]1CCCN1C(=O)[C@@H](NC(=O)[C@@H](N)Cc1ccccc1)C(C)C)[C@@H](C)O)C(=O)NCC(=O)N1CCC[C@H]1C(=O)N[C@@H](Cc1ccccc1)C(=O)N[C@@H](C)C(=O)N[C@@H](Cc1ccccc1)C(N)=O` [[Pro34,Phe35]h alpha-CGRP27-37] (H-FVPTNVGPFAF-NH2), the Ki in test [1] came out at 118 nM; in test [2], 50.7 nM. The corresponding values for `CC(=O)NCSC[C@H](NC(=O)[C@H](C)N)C(=O)N[C@@H](CC(=O)O)C(=O)N[C@H](C(=O)N[C@@H](C)C(=O)N[C@H](C(=O)N[C@@H](CSCNC(C)=O)C(=O)N[C@H](C(=O)N[C@H](C(=O)N[C@@H](Cc1cnc[nH]1)C(=O)N[C@@H](CCCNC(=N)N)C(=O)N[C@@H](CC(C)C)C(=O)N[C@@H](C)C(=O)NCC(=O)N[C@@H](CC(C)C)C(=O)N[C@@H](CC(C)C)C(=O)N[C@@H](CO)C(=O)N[C@@H](CCCNC(=N)N)C(=O)N[C@@H](CO)C(=O)NCC(=O)NCC(=O)N[C@H](C(=O)N[C@H](C(=O)N[C@@H](CCCCN)C(=O)N[C@@H](CC(N)=O)C(=O)N[C@@H](CC(N)=O)C(=O)N[C@@H](Cc1ccccc1)C(=O)N[C@H](C(=O)N1CCC[C@H]1C(=O)N[C@H](C(=O)N[C@@H](CC(N)=O)C(=O)N[C@H](C(=O)NCC(=O)N[C@@H](CO)C(=O)N[C@@H](CCCCN)C(=O)N[C@@H](C)C(=O)N[C@@H](Cc1ccccc1)C(N)=O)C(C)C)[C@@H](C)O)C(C)C)C(C)C)C(C)C)[C@@H](C)O)C(C)C)[C@@H](C)O)[C@@H](C)O` [[Cys(ACM)2,7]h alpha-CGRP] are 32 nM and 38.4 nM. The corresponding values for `CC(C)C[C@H](NC(=O)CNC(=O)[C@H](C)NC(=O)[C@H](CC(C)C)NC(=O)[C@H](CCCN=C(N)N)NC(=O)[C@H](Cc1cnc[nH]1)NC(=O)[C@@H](NC(=O)[C@@H](N)C(C)C)[C@@H](C)O)C(=O)N[C@@H](CC(C)C)C(=O)N[C@@H](CO)C(=O)N[C@@H](CCCN=C(N)N)C(=O)N[C@@H](CO)C(=O)NCC(=O)NCC(=O)N[C@H](C(=O)N[C@H](C(=O)N[C@@H](CCCCN)C(=O)N[C@@H](CC(N)=O)C(=O)N[C@@H](CC(N)=O)C(=O)N[C@@H](Cc1ccccc1)C(=O)N[C@H](C(=O)N1CCC[C@H]1C(=O)N[C@H](C(=O)N[C@@H](CC(N)=O)C(=O)N[C@H](C(=O)NCC(=O)N[C@@H](CO)C(=O)N[C@@H](CCCCN)C(=O)N[C@@H](C)C(=O)N[C@@H](CC1CCCCC1)C(N)=O)C(C)C)[C@@H](C)O)C(C)C)C(C)C)C(C)C` [[Cha37]h alpha-CGRP8-37] (HELM PEPTIDE1{V.T.H.R.L.A.G.L.L.S.R.S.G.G.V.V.K.N.N.F.V.P.T.N.V.G.S.K.A.[Cha].[am]}$$$$V2.0) are 37.9 nM and 32.7 nM.

In the case of `CC(C)C[C@H](NC(=O)CNC(=O)[C@H](C)NC(=O)[C@H](CC(C)C)NC(=O)[C@H](CCCNC(=N)N)NC(=O)[C@H](Cc1cnc[nH]1)NC(=O)[C@@H](NC(=O)[C@@H](NC(=O)[C@@H]1NC(=O)[C@H]([C@@H](C)O)NC(=O)[C@H](C)NC(=O)[C@H]([C@@H](C)O)NC(=O)[C@H](CC(=O)O)NC(=O)[C@H](NC(=O)[C@H](C)N)C(C)(C)SSC1(C)C)C(C)C)[C@@H](C)O)C(=O)N[C@@H](CC(C)C)C(=O)N[C@@H](CO)C(=O)N[C@@H](CCCNC(=N)N)C(=O)N[C@@H](CO)C(=O)NCC(=O)NCC(=O)N[C@H](C(=O)N[C@H](C(=O)N[C@@H](CCCCN)C(=O)N[C@@H](CC(N)=O)C(=O)N[C@@H](CC(N)=O)C(=O)N[C@@H](Cc1ccccc1)C(=O)N[C@H](C(=O)N1CCC[C@H]1C(=O)N[C@H](C(=O)N[C@@H](CC(N)=O)C(=O)N[C@H](C(=O)NCC(=O)N[C@@H](CO)C(=O)N[C@@H](CCCCN)C(=O)N[C@@H](C)C(=O)N[C@@H](Cc1ccccc1)C(N)=O)C(C)C)[C@@H](C)O)C(C)C)C(C)C)C(C)C` [[D-Pen2,7]h alpha-CGRP], the inhibition constant Ki turned out to be 15.2 nM in test [1] and 21 nM in test [2].
